Data from paper PMC5702617, “Novel peptide probes to assess the tensional state of fibronectin fibers in cancer” (Nature Communications, 2017).
Residues, ends and D or L forms follow the SMILES beside them. *: point of attachment. X2 = N=c1ccc2c(-c3ccc(C(=O)NCCCCCN4C(=O)CC(*)C4=O)cc3C(=O)O)c3ccc(N)c(S(=O)(=O)O)c3oc-2c1S(=O)(=O)O

Legend:
relaxed Fn fibers = relaxed Fn fibers (Homo sapiens, UniProt P02751); experiment: Single Fn fiber binding assay, relaxed fibers; details: relaxed fibers (7% strain), 30 fibers from three independent experiments, Student's t test
Sequence of relaxed Fn fibers (P02751 32-2477): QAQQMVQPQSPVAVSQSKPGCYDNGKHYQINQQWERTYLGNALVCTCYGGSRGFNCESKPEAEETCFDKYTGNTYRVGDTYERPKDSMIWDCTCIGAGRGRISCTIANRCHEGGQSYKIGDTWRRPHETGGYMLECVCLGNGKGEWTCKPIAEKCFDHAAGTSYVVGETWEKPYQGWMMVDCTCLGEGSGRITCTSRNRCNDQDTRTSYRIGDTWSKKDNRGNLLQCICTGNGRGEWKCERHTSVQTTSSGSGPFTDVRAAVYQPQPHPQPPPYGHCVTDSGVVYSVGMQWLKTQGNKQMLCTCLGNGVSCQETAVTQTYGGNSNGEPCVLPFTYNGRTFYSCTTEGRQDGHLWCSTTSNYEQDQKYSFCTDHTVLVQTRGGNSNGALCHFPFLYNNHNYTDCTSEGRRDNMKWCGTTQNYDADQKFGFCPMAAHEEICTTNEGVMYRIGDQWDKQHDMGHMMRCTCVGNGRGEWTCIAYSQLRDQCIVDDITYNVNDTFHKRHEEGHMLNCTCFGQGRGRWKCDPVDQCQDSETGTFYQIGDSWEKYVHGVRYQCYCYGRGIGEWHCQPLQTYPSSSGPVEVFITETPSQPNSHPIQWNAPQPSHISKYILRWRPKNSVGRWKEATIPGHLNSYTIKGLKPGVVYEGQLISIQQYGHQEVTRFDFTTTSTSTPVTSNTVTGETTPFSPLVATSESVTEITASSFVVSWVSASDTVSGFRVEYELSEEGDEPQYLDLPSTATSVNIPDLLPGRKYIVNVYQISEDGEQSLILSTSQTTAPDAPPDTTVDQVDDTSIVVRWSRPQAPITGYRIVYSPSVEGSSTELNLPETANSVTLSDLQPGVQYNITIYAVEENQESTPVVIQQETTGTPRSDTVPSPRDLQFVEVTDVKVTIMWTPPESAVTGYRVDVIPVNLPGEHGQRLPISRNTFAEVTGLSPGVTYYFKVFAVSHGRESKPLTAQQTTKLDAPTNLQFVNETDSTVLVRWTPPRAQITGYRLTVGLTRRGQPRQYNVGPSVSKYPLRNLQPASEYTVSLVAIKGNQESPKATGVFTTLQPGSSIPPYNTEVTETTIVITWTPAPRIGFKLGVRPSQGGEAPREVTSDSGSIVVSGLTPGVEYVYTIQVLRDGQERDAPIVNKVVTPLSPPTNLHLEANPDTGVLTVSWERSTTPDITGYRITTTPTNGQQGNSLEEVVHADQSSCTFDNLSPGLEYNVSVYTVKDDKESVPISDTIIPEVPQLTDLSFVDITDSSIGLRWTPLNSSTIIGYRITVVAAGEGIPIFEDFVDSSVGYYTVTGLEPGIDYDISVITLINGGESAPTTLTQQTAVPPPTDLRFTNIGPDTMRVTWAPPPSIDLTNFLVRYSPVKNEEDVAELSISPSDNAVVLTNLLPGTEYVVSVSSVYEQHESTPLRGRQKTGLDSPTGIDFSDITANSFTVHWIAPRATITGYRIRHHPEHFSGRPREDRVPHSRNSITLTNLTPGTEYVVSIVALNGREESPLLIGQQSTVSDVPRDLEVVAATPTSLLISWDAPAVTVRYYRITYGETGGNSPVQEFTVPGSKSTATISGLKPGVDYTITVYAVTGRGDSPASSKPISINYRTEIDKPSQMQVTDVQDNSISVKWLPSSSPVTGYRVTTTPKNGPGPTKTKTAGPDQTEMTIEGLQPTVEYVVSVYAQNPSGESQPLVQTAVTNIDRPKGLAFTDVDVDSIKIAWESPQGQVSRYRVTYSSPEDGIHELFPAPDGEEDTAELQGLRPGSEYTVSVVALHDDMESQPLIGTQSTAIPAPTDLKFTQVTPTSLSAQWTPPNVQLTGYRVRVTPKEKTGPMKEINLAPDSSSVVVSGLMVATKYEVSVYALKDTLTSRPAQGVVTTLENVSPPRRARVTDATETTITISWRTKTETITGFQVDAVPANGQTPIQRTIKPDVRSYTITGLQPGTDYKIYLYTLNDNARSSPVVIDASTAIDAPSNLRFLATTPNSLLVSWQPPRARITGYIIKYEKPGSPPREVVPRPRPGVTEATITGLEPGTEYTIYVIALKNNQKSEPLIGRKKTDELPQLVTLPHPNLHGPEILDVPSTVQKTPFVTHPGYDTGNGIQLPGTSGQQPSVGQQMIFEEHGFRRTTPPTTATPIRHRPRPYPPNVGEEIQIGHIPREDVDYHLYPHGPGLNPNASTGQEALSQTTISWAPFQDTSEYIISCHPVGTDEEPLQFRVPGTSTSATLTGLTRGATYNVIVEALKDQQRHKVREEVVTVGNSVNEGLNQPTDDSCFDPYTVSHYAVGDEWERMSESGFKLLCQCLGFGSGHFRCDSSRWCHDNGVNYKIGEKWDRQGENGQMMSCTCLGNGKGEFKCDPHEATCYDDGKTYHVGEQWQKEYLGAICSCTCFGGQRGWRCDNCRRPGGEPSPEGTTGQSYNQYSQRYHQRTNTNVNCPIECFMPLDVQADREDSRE
Description: (§1) Fn fibers were manually pulled from a concentrated droplet of Fn in PBS (95% unlabeled and 5% Cy5-labeled protein) using a sharp pipette tip and deposited onto a flexible silicone sheet (SMI, USA)[41], rinsed and rehydrated in PBS (schematically shown in Fig. 2c). For affinity measurement Fn fibers were deposited onto a pre-stretched sheet and subsequently relaxed to about a strain of 7% as defined earlier. For measurements of the strain-sensitive binding behavior, fibers were either relaxed or stretched (about 380% strain). […]
Single Fn fiber samples were imaged with an Olympus FV 1000 confocal microscope (Olympus AG, Switzerland) using a 40× water immersion objective with a numerical aperture of 0.9. […] Samples were excited with a 488 nm laser and acceptor (Alexa-546) and donor (Alexa-488) signal was detected in two PMTs using a 12 nm detection bandwidth for donor (514–526 nm) and acceptor (566–578 nm)[25]. […]
Images were analyzed using Fiji-ImageJ and Matlab (MathWorks, Switzerland). For the Fn fiber affinity study, the pixel-wise ratio of FnBPA5-Alexa- 488 signal intensity divided by Fn-Cy5 intensity was calculated for each fiber, if intensities were above a cut-off threshold and below saturation. […] Correction factors for donor bleed through and direct activation of the acceptor used for the analysis were experimentally assessed as shown in Supplementary Fig. 5b, c. […]

[1] = target: relaxed and stretched Fn fibers (Homo sapiens, UniProt P02751); experiment: Fn fiber stretch assay, relaxed vs stretched fibers; format: binding; details: relaxed (7% strain) vs stretched (380% strain) fibers, three independent experiments, p < 0.001
Sequence of relaxed and stretched Fn fibers (P02751 32-2477): as above
Description: as §1
Images were analyzed using Fiji-ImageJ and Matlab (MathWorks, Switzerland). For the Fn fiber affinity study, the pixel-wise ratio of FnBPA5-Alexa- 488 signal intensity divided by Fn-Cy5 intensity was calculated for each fiber, if intensities were above a cut-off threshold and below saturation. […] Correction factors for donor bleed through and direct activation of the acceptor used for the analysis were experimentally assessed as shown in Supplementary Fig. 5b, c. […] FRET acceptor channel was corrected for donor bleed through which was measured to be ~20% of the acceptor intensity (Supplementary Fig. 5b). Further analysis such as FRET-Fn-FnBPA5/Fn ratio quantifications were carried out in MatLab.

[2] = target: fibrillar Fn in human dermal fibroblast ECM (Homo sapiens, UniProt P02751); experiment: Binding to ECM assembled by human dermal fibroblasts; format: cell-based; details: 5 μg ml−1 peptide, 1 h prior to fixation, confocal microscopy
Sequence of fibrillar Fn in human dermal fibroblast ECM (P02751 32-273 limits assumed): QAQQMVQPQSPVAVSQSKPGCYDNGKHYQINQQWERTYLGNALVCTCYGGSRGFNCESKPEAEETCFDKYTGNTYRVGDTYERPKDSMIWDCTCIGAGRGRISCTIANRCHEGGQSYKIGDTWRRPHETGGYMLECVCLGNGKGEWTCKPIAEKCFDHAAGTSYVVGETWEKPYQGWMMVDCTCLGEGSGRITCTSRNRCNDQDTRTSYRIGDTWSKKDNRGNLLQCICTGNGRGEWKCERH
Method: Normal human dermal fibroblasts (PromoCell, Vitaris AG, Switzerland) were cultured in alpha minimum essential medium (α-MEM) with 10% fetal bovine serum from BioWest (Nuaillé, France), and split before reaching confluence. Cells were seeded onto Fn-coated 8-well chambered cover glasses (Nunc^TM Lab-Tek^TM Chambered Coverglass, Thermo Fisher Scientific, Reinach, Switzerland) at a density of 50 × 10^3 cells per cm^2 and allowed to attach to the surface before medium exchange to medium containing 50 μg ml^−1 Fn. Dependent on the experiment, a fraction of only 10% of exogenous Fn was double-labeled for FRET analysis to prevent intermolecular FRET. Cells in Figs. 2h and 3 were cultured for 48 h. […] After fixation with a 4% paraformaldehyde solution in PBS, the samples shown in Fig. 3 were stained using DAPI (Invitrogen^TM, Thermo Fisher Scientific, Switzerland) and were further analyzed by means of confocal microscopy, whereas samples shown in Fig. 2h were blocked by 4% donkey serum (Abcam, Switzerland) for 1 h at room temperature and fibronectin was stained using a rabbit polyclonal anti-fibronectin antibody (1:50 diluted, ab23750, Abcam, Switzerland). Samples shown in Fig. 2h were then incubated for 1 h with a donkey anti-rabbit Alexa-546 secondary antibody (Invitrogen^TM, Thermo Fisher Scientific, Switzerland).

## CC[C@H](C)[C@H](NC(=O)CNC(=O)[C@H](CCCCN)NC(=O)[C@@H](NC(=O)[C@H](CO)NC(=O)[C@H](CCC(=O)O)NC(=O)[C@H](CCC(=O)O)NC(=O)[C@H](CC(=O)O)NC(=O)[C@H](Cc1ccccc1)NC(=O)[C@H](CCC(=O)O)NC(=O)[C@@H](NC(=O)[C@H](CC(C)C)NC(=O)[C@H](CC(N)=O)NC(=O)[C@H](CO)NC(=O)[C@H](CCC(=O)O)NC(=O)[C@@H](NC(=O)[C@@H](NC(=O)[C@@H](NC(=O)[C@H](CCC(N)=O)NC(=O)CNC(=O)CNC(=O)CNC(=O)[C@@H](N)CSC1CC(=O)N(CCCCCNC(=O)c2ccc(-c3c4ccc(=N)c(S(=O)(=O)O)c-4oc4c(S(=O)(=O)O)c(N)ccc34)c(C(=O)O)c2)C1=O)C(C)C)[C@@H](C)O)[C@@H](C)O)C(C)C)[C@@H](C)O)C(=O)N[C@H](C(=O)N[C@H](C(=O)NCC(=O)N[C@@H](C)C(=O)N[C@H](C(=O)N[C@@H](CO)C(=O)N[C@@H](CC(=O)O)C(=O)N[C@@H](Cc1c[nH]cn1)C(=O)N[C@H](C(=O)N[C@H](C(=O)N[C@H](C(=O)N[C@@H](CCC(=O)O)C(=O)N[C@@H](CC(=O)O)C(=O)N[C@H](C(=O)N[C@@H](CCCCN)C(=O)O)[C@@H](C)O)C(C)C)[C@@H](C)O)[C@@H](C)O)C(C)C)[C@@H](C)O)C(C)C (stereo partly shown) [FnBPA5-Alexa488] (H-C(X2)GGGQVTTESNLVEFDEESTKGIVTGAVSDHTTVEDTK-OH; N-terminus and C-terminus assumed)
Relaxed Fn fibers
  binding to single relaxed Fn fibers (words): significant higher binding
Relaxed Fn fibers; listed as FnBPA5-Alexa-488
  binding to single relaxed Fn fibers (words): significantly higher binding to Fn fibers than the scrambled control peptide
[1]
  strain-dependent binding, FnBPA5/Fn ratio: significantly higher peptide binding of FnBPA5 to relaxed Fn fibers compared to stretched fibers
[2]
  binding to fibroblast-assembled ECM: Specific binding to fibrillar Fn
